Measurements as given in patent US20210262032A1, “DETERMINING RESPONDERS TO INFLAMMATION TREATMENT” (RAMBAM MED-TECH LTD., priority 2018, published 2021).

Key:
[1] = tested on: TNFα expression; assay: Whole blood treated with Vedolizumab, LPA or combination; TNFα expression by qPCR; format: cell-based, human; settings: whole blood from healthy donors, 3 hours at 37 degrees, Vedolizumab 600 μg/ml, LPA 1 μM, fold-induction over untreated control
Description: FIGS. 11A-B: […] synergistic effect between Vedolizumab and LPA in-Vitro. (11A-B) Bar charts showing inflammatory cytokine expression including (11A) TNFα and (11B) IL-1β post incubation with Vedolizumab (600 μg/ml), LPA (1 μM) and co-incubation of the two substances, using qPCR for quantification. Un-treated whole blood basal expression served as control and values were expressed as fold-induction over control. Data were pooled from three independent experiments. Significance was calculated using Wilcoxon-test (two-sided; μ=1)
The combined effect of Vedolizumab and LPA was next tested on blood cells. Whole blood from healthy donors was treated with Vedolizumab, LPA or a combination for 3 hours at 37 degrees and pro-inflammatory cytokine expression was measured. Untreated whole blood was used as a control. […] This may be due to the fact that there are 6 LPA receptors and it appears that antagonism of only one of them is not sufficient to completely counter act the effect of the LPA.

[2] = tested on: Tregs in intestinal tissue; assay: Estimated Treg proportion scores in intestinal tissue by xCell deconvolution of public dataset GEO73661; format: in vivo, human; settings: post-treatment vs baseline, xCell estimate from GEO73661
Description: Deconvolved estimated Tregs proportion scores in intestinal tissue and peripheral blood at baseline and in different time points post-treatment in responding and non-responding patients were evaluated usind xCell.
xCell, which is a computational deconvolution method based on ssGSEA enrichment of cell specific signatures for estimation of abundance scores of immune cell types from the gene expression data, was used. Only cells that had non-zero values in at least 75% of the samples were included.
Estimated cell proportions in intestinal tissue were tested using a publicly available dataset (GEO73661). […] Although Treg accumulation is observed in blood of non-responders, tissue Tregs are not reduced.

[3] = tested on: IBD (UC and CD) patients; assay: Primary clinical response to Vedolizumab in IBD patients, cohort 1; format: in vivo, human; settings: number of patients with 0—None / 1—partial / 2—full response; for clinical 2 w (0/1/2): 2 weeks; for clinical 14 w (0/1/2): 14 weeks; for clinical 26 w (0/1/2): 26 weeks; for clinical 52 w (0/1/2): 52 weeks
Excerpt: The exploratory study cohort consisted of 73 whole blood samples from 22 IBD (UC and CD) patients, who received Vedolizumab treatment at the Rambam Health Care Campus (RHCC) and met the study inclusion criteria. Patients that had past exposure to Vedolizumab, or patients who had active infection including febrile diseases or intra-abdominal or perianal abscess were excluded.
Samples were collected at the following time-points: pretreatment, 2 weeks and 14 weeks post first treatment and following one year of treatment for those patients who received long-term care. Patients were classified for response by clinical score after one-year follow-up and were clinically characterized as detailed in table 2.

Row | Substance | TNFα expression [1] | Tregs frequency in intestinal tissue ([2]; non-responders) | Tregs frequency in intestinal tissue ([2]; responding patients) | clinical 2 w (0/1/2) ([3]; Non-responders (n = 10)) | clinical 14 w (0/1/2) ([3]; Non-responders (n = 10)) | clinical 26 w (0/1/2) ([3]; Non-responders (n = 10)) | clinical 52 w (0/1/2) ([3]; Non-responders (n = 10)) | clinical 2 w (0/1/2) ([3]; Responders (n = 12)) | clinical 14 w (0/1/2) ([3]; Responders (n = 12)) | clinical 26 w (0/1/2) ([3]; Responders (n = 12)) | clinical 52 w (0/1/2) ([3]; Responders (n = 12))
1 | lysophosphatidic acid [LPA] | neither Vedolizumab nor LPA alone had an effect | – | – | – | – | – | – | – | – | – | –
2 | Vedolizumab | neither Vedolizumab nor LPA alone had an effect | unaffected | reduces Tregs frequency | 5/5/0 | 7/2/1 | 8/2/0 | 10/0/0 | 1/7/0 | 1/5/2 | 0/4/5 | 0/0/12
